2 molecules from article PMC12371036 (Nature Communications, 2025) can be followed below.

The target of test [1] is T1, UVR8^D96N/D107N (constitutive monomer) (Arabidopsis thaliana, UniProt Q9FN03, D96N/D107N).
T1 sequence (Q9FN03 1-440 D96N/D107N): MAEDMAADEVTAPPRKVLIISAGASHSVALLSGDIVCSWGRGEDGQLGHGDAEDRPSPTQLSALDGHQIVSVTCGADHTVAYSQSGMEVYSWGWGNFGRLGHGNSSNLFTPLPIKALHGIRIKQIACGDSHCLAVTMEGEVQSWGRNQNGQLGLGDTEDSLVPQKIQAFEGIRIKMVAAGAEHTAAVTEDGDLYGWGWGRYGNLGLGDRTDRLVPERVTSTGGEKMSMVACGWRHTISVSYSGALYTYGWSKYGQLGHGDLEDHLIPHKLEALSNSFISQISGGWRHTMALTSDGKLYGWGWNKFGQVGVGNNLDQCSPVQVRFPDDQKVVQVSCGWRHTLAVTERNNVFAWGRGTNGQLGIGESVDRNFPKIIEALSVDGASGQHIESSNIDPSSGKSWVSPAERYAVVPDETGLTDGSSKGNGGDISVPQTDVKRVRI
Description: nanoDSF Tm increase with purified recombinant protein. Type of test: binding. (DSF heats the sample and reads unfolding from a dye or from intrinsic fluorescence.)

The target of test [2] is UVR8 (UV RESISTANCE LOCUS8) (Arabidopsis thaliana, UniProt Q9FN03). Description: MST. Type of test: binding.
Chain of UVR8 (UV RESISTANCE LOCUS8) (Q9FN03 whole entry): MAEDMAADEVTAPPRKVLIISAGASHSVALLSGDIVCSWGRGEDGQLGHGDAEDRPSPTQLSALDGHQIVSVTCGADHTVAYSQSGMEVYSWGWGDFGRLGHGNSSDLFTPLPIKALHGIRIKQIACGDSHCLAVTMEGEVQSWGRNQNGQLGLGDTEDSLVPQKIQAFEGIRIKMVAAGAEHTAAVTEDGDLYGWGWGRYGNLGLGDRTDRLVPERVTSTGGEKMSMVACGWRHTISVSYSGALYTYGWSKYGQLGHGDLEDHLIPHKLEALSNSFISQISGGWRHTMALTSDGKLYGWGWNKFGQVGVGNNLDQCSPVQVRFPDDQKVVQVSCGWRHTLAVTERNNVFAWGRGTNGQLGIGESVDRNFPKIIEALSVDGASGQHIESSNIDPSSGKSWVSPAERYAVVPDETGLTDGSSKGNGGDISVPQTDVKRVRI
In test [3] the target is T2, His-SUMO-UVR8 (wild-type UV … LOCUS8) (Arabidopsis thaliana), Q9FN03.
T2 chain: T1 sequence (Q9FN03 1-440 D96N/D107N) with N96D, N107D
Put plainly: SEC. The conditions noted are these: remark: other sources report otherwise.

Positions count from the first letter of the chain named.

As to `O=C(/C=C/c1ccc(O)cc1)c1c(O)cc(O)cc1O` [NGC, naringenin chalcone], in test [1], the “nanoDSF Tm increase with purified recombinant protein” value is reported as “significant increase in Tm was observed when NGC was incubated with the three monomeric forms”. This molecule returned a Kd in test [2] of approximately 12 µM.

B1: His-SUMO-UVR8 (wild-type UV … LOCUS8), Q9FN03 1-440 (natural protein)
chain: T1 sequence (Q9FN03 1-440 D96N/D107N) with N96D, N107D
In test [3], B1 gave a stoichiometry N of 2.

A word on the Kd: it is the equilibrium constant for the complex coming apart. By stoichiometry N is commonly meant the number of molecules, sites or subunits per partner or assembly.
